From patent publication US20020119898A1, “Fabric cleaning system” (Unilever Home & Personal Care USA, Division of Conopco, Inc., priority 2000, published 2002)

Assay: pKa of Brönsted acidic or basic functional groups of the fluorescer
Assay type: physicochemical
Details: functional groups comprised in the fluorescer
Excerpt: In addition, a preferred group of […] can be described by the presence and pKa of certain functional groups in the fluorescer. Therefore, a preferred group of hydrophilic fluorescers comprises fluorescers having at least one or more Brönsted acidic, basic functional groups or mixtures thereof with a pKa of 7 or less. A Brönsted acidic functional group is generally defined as a —AH group having a pKa of 7 or less for the equilibrium dissociation constant Ka=[—A][H′]/[—AH]. Likewise a Brönsted basic functional group is generally defined as a —B group, the conjugate acid of it (i.e. BH^+) having a pKa of 7 or less for the equilibrium dissociation constant Ka=[—B][H^+]/[—BH^+]. Examples of acidic functional groups include sulphonate, carboxylate, sulphate, phosphate, phosphonate and phosphinate. Examples of basic functional groups include amino groups, primary, secondary and tertiary amine groups.

- pKa of functional groups: < 7
SMILES: O=S(=O)([O-])c1ccccc1C=Cc1ccc(-c2ccc(C=Cc3ccccc3S(=O)(=O)[O-])cc2)cc1.[Na+].[Na+] [TINOPAL™ CBS-X]
